Where a name gives a salt, the structure may show the parent alone.
What follows are compounds tested on SMN protein in SMA patient fibroblasts (GM03813) (assay: SMN cytoblot assay (SMN protein levels in SMA patient fibroblasts)). Conditions: not given.
Assay type: cell-based, human
Excerpt: One method for monitoring SMN protein levels in cells is through use of a cytoblot assay, in which cells are fixed and probed with an antibody against a target protein of interest. We have used a cytoblot assay to determine the concentration of SMN protein in SMA patient fibroblasts, and have identified small molecules that increase SMN protein concentration.
Using the cytoblot assay, we can clearly distinguish SMN protein levels in patient (GM03813) versus carrier fibroblast cells (GM03814), as shown in the FIGS. 1A and 1B.
• 1. Plate 50 μl per well of 300,000 cells/ml (15,000 cells per well) into Nunc white 384-well opaque-bottomed plates. • 2. Incubate plates at 37° C., 5% CO2 overnight. Day 2 • 1. Aspirate media from wells using Tecan plate washer. • 2. Fix cells by adding 20 μl/well of cold methanol (kept in −20° C. freezer). • 3. Incubate plates in 4° C. refrigerator for 10 minutes. • 4. Aspirate methanol using Tecan plate washer. • 5. Add 50 μl/well of primary Ab solution, (BD anti-SMN Ab diluted to 125 ng/ml in 10% fetal goat serum PBST), using multi-drop. • 6. Seal plates and incubate overnight at room temperature. Day 3 • 1. After 16-20 hrs incubation, wash plates with PBST 2× using Tecan plate washer. • 2. Add 50 μl of secondary Ab solution, (Santa Cruz goat anti-Mouse-HRP diluted to 67 ng/ml in 10% fetal goat serum PBST). • 3. Seal plates and incubate 2 hrs at room temperature. • 4. Wash plates with PBST 2× using Tecan plate washer. • 5. Add 50 μl/well 10% fetal goat serum PBST. • 6. Incubate in 4° C. refrigerator for 10 minutes. • 7. Aspirate plates using plate washer and add ECL luminescence solution, 20 μl/well. • 8. Measure luminescence on plate reader. Automated Scoring
We scored each compound based on the maximum signal-to-noise ratio (SNR) found among its dose curves. These scores are based on edge-corrected SMN data, using only plates that passed quality control. The untreated level on each plate was found by taking the median of the untreated wells, and for each treated well we calculated a log(T/U) ratio. Each curve was generated in triplicate on each plate, so each point on a compound's dose curve was obtained by determining the median for the replicate points. Each ratio thus has an error estimate from the scatter between the triplicate data points (1.5 times the median absolute deviation from the median). For each dose curve, we calculated the SNR for each data point log(T/U)/error, and chose the maximum point as our indicator of SMN induction activity. Since this is a signal-to-noise score, scores much greater than one indicate significant activity, assuming normal statistics. We decided to use a cutoff signal-to-noise ratio of 6. This selection represents a considerable enrichment towards visually-selected compounds. We identified 100 out of 2000 compounds producing scores >6. This included 13 of the 28 visual selections.

In order of falling SNR:
1. Ferric Ammonium Citrate  19.4
2. O=S(=O)([O-])[O-].[Mn+2] [Manganese Sulfate]  10.3
3. Ferrous Sulfate  7.55
4. CS(=N)(=O)CC[C@H](N)C(=O)O (stereo partly drawn) [L-Methionine Sulfoximine]  7.29
5. C1CNCCN1.O=C(O)CC(O)(CC(=O)O)C(=O)O [Piperazine Citrate]  6.68

Same assay, conditions: maximum signal-to-noise ratio log(T/U)/error among a compound's dose curves, SMN cytoblot; cutoff 6; column Scoring says Automated or Visual selection

In order of rising SNR:
1. CCn1nc(C(=O)O)c(=O)c2cc3c(cc21)OCO3 [Cinoxacin]  6
2. CC1CCC(=CC(=O)O)CC1 (stereo not drawn) [2-(4-methyl010cyclohexylidene) acetic acid]  6.16
3. CN(C)C(=O)Oc1ccc[n+](C)c1 [Pyridostigmine Bromide]  6.19
4. CN1CCCN=C1/C=C/c1cccs1 [Pyrantel Pamoate]  6.22
5. CCC(=O)OCC(=O)[C@@]1(OC(=O)CC)[C@@H](C)C[C@H]2[C@@H]3CCC4=CC(=O)C=C[C@]4(C)[C@@]3(Cl)[C@@H](O)C[C@@]21C [Beclomethasone Dipropionate]  6.27
6. CCCC(CCC)C(=O)O[C@H]1C[C@H]2CC[C@@H](C1)[N+]2(C)C [Anisotropine Methylbromide]  6.43
7. C#CCN(C)Cc1ccccc1 [Pargyline]  6.52
8. C=CCOc1ccccc1OCC(O)CNC(C)C (stereo not drawn) [Oxprenolol Hydrochloride]  6.52
9. CC(O)CN1CCN(CC(=O)[O-])CCN(CC(=O)[O-])CCN(CC(=O)[O-])CC1.[Gd+3] (stereo not drawn) [Gadoteridol]  6.54
10. CCCC(CCC)C(=O)O [Divalproex Sodium]  6.59
11. CC(C)CCCC(C)CCCC(C)CCCCC(C)CCCC(C)CCCC(C)C (stereo not drawn) [Hexamethyltetracosane]  6.64
12. CC(C)(C)OC(=O)N1CCCNCC1 [1-Boc-homopiperazine]  6.66
13. CC1(C)S[C@@H]2[C@H](NC(=O)[C@H](NC(=O)N3CCNC3=O)c3ccccc3)C(=O)N2[C@H]1C(=O)O [Azlocillin Sodium]  6.7
14. CC(=O)OC/C=C(\C)CCC=C(C)C [Geranyl Acetate]  6.71
15. COc1c2occc2c(OC)c2c(=O)cc(C)oc12 [Khellin]  6.73
16. O=c1[nH]c(=O)n(C2CCCO2)cc1F (stereo not drawn) [Tegafur]  6.74
17. O=C(O)c1ccccc1OP(=O)(O)O [Fosfosal]  6.77
18. CCOC(=O)[C@H](CCc1ccccc1)N[C@@H](C)C(=O)N1CCC[C@H]1C(=O)O [Enalapril]  6.77
19. Dibekacin Sulfate Salt  6.79
20. Chymopapain  6.83
21. NCC1(CC(=O)O)CCCCC1 [Gabapentin]  6.84
22. O=C(O)[C@H](O)[C@@H](O)C(=O)O [L-Tartaric acid]  6.92
23. CC[C@]12CCCN3CCc4c(n(c5ccccc45)[C@@](O)(C(=O)OC)C1)[C@@H]32 [Vincamine]  6.94
24. O=C(N/N=C/c1ccc([N+](=O)[O-])o1)c1ccc(O)cc1 [Nifuroxazide]  6.96
25. Nonoxynol-9  7
26. S=[Se]=S [Selenium Sulfide]  7.08
27. CC(Cc1cccc(C(F)(F)F)c1)NCCOC(=O)c1ccccc1 (stereo not drawn) [Benfluorex Hydrochloride]  7.11
28. CC(C)NCC(O)COc1ccc(CCOCC2CC2)cc1 (stereo not drawn) [Betaxolol Hydrochloride]  7.21
29. N=C(N)NC(=O)Cc1c(Cl)cccc1Cl [Guanfacine Hydrochloride, (N-aminoiminomethyl)-2,6-dichlorobenzeneacetamide]  7.24
30. COc1ccc(CC(C)=O)cc1OC [3,4-Dimethoxyphenylacetone]  7.25
31. CCCCC(CC)COC(=O)/C=C/C(=O)OCC(CC)CCCC (stereo not drawn) [Bis(2-Ethlyhexyl) Fumarate]  7.33
32. CC(C)NCC(O)COc1cccc2ccccc12 (stereo not drawn) [Propranolol Hydrochloride]  7.38
33. CC(C)(Oc1ccc(CCNC(=O)c2ccc(Cl)cc2)cc1)C(=O)O [Bezafibrate]  7.38
34. CC(=O)OCC(=O)[C@H]1CC[C@H]2[C@@H]3CCC4=CC(=O)CC[C@]4(C)[C@H]3CC[C@]12C [Desoxycorticosterone Acetate]  7.41
35. CN(C)CCC(O)(c1ccccc1)c1ccccc1Cl (stereo not drawn) [Chlophedianol Hydrochloride]  7.44
36. C[N+]1(CCC(C(N)=O)(c2ccccc2)c2ccccc2)CCCCC1 [Fenpiverinium Bromide]  7.49
37. CCCN1C[C@H](CSC)C[C@@H]2c3cccc4[nH]cc(c34)C[C@H]21 [Pergolide Mesylate]  7.69
38. CC[C@@H](C(N)=O)N1CCCC1=O [Levetiracetam]  7.74
39. CC1CCC(C(C)C)C(O)C1 (stereo not drawn) [Menthol]  7.87
40. CCCCCCCC/C=C\CCCCCCCC(=O)OC [Methyl Oleate]  7.89
41. Neomycin Sulfate  7.96
42. CNC[C@H](O)c1ccc(O)c(O)c1 [Epinephrine Bitartrate]  8.26
43. CN(CC(=O)O)C(=N)N [Creatine]  8.34
44. C=CCSC[C@H](N)C(=O)O [S-Allyl-L-Cysteine]  9.02
45. C=CCSSCC=C [Allyl Disulfide]  9.08
46. C[C@H](CCC(=O)O)[C@H]1CC[C@H]2[C@@H]3[C@@H](O)C[C@@H]4C[C@H](O)CC[C@]4(C)[C@H]3CC[C@]12C [Ursodiol]  9.2
47. CC(C[N+](C)(C)C)OC(N)=O (stereo not drawn) [Bethanechol Chloride]  9.26
48. O=C(OCc1ccccc1)c1ccccc1 [Benzyl Benzoate]  9.42
49. CNCCNS(=O)(=O)c1cccc2cnccc12 [H-8]  9.52
50. CCN(CC)C(C)CN1c2ccccc2Sc2ccccc21 (stereo not drawn) [Ethopropazine Hydrochloride]  9.61
51. CC(C)(S)C(N)C(=O)O (racemic) [dl-Penicillamine]  9.63
52. Teicoplanin  9.72
53. C=N[C@@H](C(=O)N[C@@H]1C(=O)N2[C@@H]1SC(C)(C)[C@@H]2C(=O)O)c1ccccc1 [Metampicillin]  9.95
54. CCCCC/C=C\C/C=C\CCCCCCCC(=O)OC [Methyl Linoleate]  10.1
55. CN(C)c1nc(N(C)C)nc(N(C)C)n1 [Altretamine]  10.2
56. CN(C)[C@@H]1C(O)=C(C(N)=O)C(=O)[C@@]2(O)C(O)=C3C(=O)c4c(O)ccc(Cl)c4[C@@](C)(O)[C@H]3C[C@@H]12 [Chlortetracycline Hydrochloride]  10.4
57. CCN(CC)CCNC(=O)c1cc(S(C)(=O)=O)ccc1OC [Tiapride]  10.5
58. C=CCCC(=O)O [4-Pentenoic acid]  10.8
59. NC[C@@H]1O[C@H](O[C@H]2[C@@H](O)[C@H](O[C@@H]3[C@@H](O)[C@H](N)C[C@H](N)[C@H]3O[C@H]3O[C@H](CO)[C@@H](O)[C@H](O)[C@H]3N)O[C@@H]2CO)[C@H](N)[C@@H](O)[C@@H]1O [Paromomycin Sulfate]  11
60. CN[C@@H]1[C@H](O)[C@H](NC)[C@H]2O[C@@]3(O)C(=O)C[C@@H](C)O[C@H]3O[C@@H]2[C@H]1O [Spectinomycin]  11
61. [2-(hexahydro-1 (2H)-azocinyl)ethyl]guanidine [Guanethidine Monosulfate]  11.3
62. C=C(C)C1CCC(C)CC1OC(C)=O (stereo not drawn) [Isopulegol acetate]  11.4
63. CC(=O)Nc1c(I)cc(I)c(C(=O)O)c1I [Acetrizoate Sodium]  12.8
64. O=C1Nc2ccc(Cl)cc2[C@@](C#CC2CC2)(C(F)(F)F)O1 [Efavirenz]  13.1
65. NC[C@@H]1O[C@H](O[C@H]2[C@@H](O)[C@H](O[C@@H]3[C@@H](O)[C@H](N)C[C@H](N)[C@H]3O[C@H]3O[C@H](CN)[C@@H](O)[C@H](O)[C@H]3N)O[C@@H]2CO)[C@H](N)[C@@H](O)[C@@H]1O [Framycetin]  13.3
66. CCc1cc(C(N)=S)ccn1 [Ethionamide]  14
67. CC(=O)Oc1cc(C(C)C)c(OCCN(C)C)cc1C [Moxisylyte Hydrochloride]  14.3
68. Gentamicin Sulfate  14.9
69. CC[N+](CC)(CC)CCOc1cccc(OCC[N+](CC)(CC)CC)c1OCC[N+](CC)(CC)CC [Gallamine Triethiodide]  15.4
70. CS(=O)(=O)OCCCCOS(C)(=O)=O [Busulfan]  17.4
